Laboratory results as given in BindingDB's records for PubMed 34735766 (Shandong University, 2021).

Test: Inhibition of Influenza A virus H1N1 Neuraminidase

In the case of CCC(CC)O[C@@H]1C=C(C(=O)O)C[C@H](NCc2ccc(Sc3ccccc3)cc2)[C@H]1NC(C)=O, the IC50 is reported as 5.6 nM.
